Patent publication US8877748B2, “Heterocyclic fused anthraquinone derivatives, manufacturing method and pharmaceutical composition using thereof” (National Defense Medical Center, priority 2012, dated 2014)

Tests used:
[1] = test system: PC-3 prostate cancer cell line; test: SRB assay cell viability, PC-3 prostate cancer cell line; format: cell-based, human; details: Homo sapiens, PC-3 prostate cancer cell line, Table II prints no unit, μM printed, read-out: SRB assay: 50% inhibition of cancer cell proliferation of sample concentration (IC50) of PC-3 prostate cancer cell line
[2] = test system: CCRF-CEM; test: NCI screening platform one-dose single concentration screening, leukemia CCRF-CEM; format: cell-based, human; details: 10 μM
[3] = test system: HL-60, TB; test: NCI one-dose screening, leukemia HL-60, TB; format: cell-based, human; details: 10 μM
[4] = test system: MOLT-4; test: NCI one-dose screening, leukemia MOLT-4; format: cell-based, human; details: 10 μM
[5] = test system: SR; test: NCI one-dose screening, leukemia SR; format: cell-based, human; details: 10 μM
[6] = test system: PRMI-8226 cell line; test: NCI one-dose screening, leukemia PRMI-8226; format: cell-based, human; details: 10 μM
[7] = test system: K562cell line; test: NCI one-dose screening, leukemia K562; format: cell-based, human; details: 10 μM
[8] = test system: EKVX; test: NCI one-dose screening, non-small cell lung cancer EKVX; format: cell-based, human; details: 10 μM
[9] = test system: HOP-62; test: NCI one-dose screening, non-small cell lung cancer HOP-62; format: cell-based, human; details: 10 μM
[10] = test system: NCI-H226; test: NCI one-dose screening, non-small cell lung cancer NCI-H226; format: cell-based, human; details: 10 μM
[11] = test system: NCI-H23; test: NCI one-dose screening, non-small cell lung cancer NCI-H23; format: cell-based, human; details: 10 μM
[12] = test system: NCI-H322M; test: NCI one-dose screening, non-small cell lung cancer NCI-H322M; format: cell-based, human; details: 10 μM; Non-small cell lung cancer
[13] = test system: NCI-H460; test: NCI one-dose screening, non-small cell lung cancer NCI-H460; format: cell-based, human; details: 10 μM
[14] = test system: NCI-H522; test: NCI one-dose screening, non-small cell lung cancer NCI-H522; format: cell-based, human; details: 10 μM
[15] = test system: A549/ATCC; test: NCI one-dose screening, non-small cell lung cancer A549/ATCC; format: cell-based, human; details: 10 μM
[16] = test system: COLO 205; test: NCI one-dose screening, colon cancer COLO 205; format: cell-based, human; details: 10 μM
[17] = test system: HCC-2998; test: NCI one-dose screening, colon cancer HCC-2998; format: cell-based, human; details: 10 μM
[18] = test system: HCT-116; test: NCI one-dose screening, colon cancer HCT-116; format: cell-based, human; details: 10 μM
[19] = test system: HCT-15; test: NCI one-dose screening, colon cancer HCT-15; format: cell-based, human; details: 10 μM
[20] = test system: KM12; test: NCI one-dose screening, colon cancer KM12; format: cell-based, human; details: 10 μM
[21] = test system: HT29; test: NCI one-dose screening, colon cancer HT29; format: cell-based, human; details: 10 μM
[22] = test system: SF-268; test: NCI one-dose screening, CNS cancer SF-268; format: cell-based, human; details: 10 μM
[23] = test system: SF-295; test: NCI one-dose screening, CNS cancer SF-295; format: cell-based, human; details: 10 μM
[24] = test system: SF-539; test: NCI one-dose screening, CNS cancer SF-539; format: cell-based, human; details: 10 μM
[25] = test system: SNB-19; test: NCI one-dose screening, CNS cancer SNB-19; format: cell-based, human; details: 10 μM
[26] = test system: SNB-75; test: NCI one-dose screening, CNS cancer SNB-75; format: cell-based, human; details: 10 μM
[27] = test system: U251; test: NCI one-dose screening, CNS cancer U251; format: cell-based, human; details: 10 μM
[28] = test system: LOX IMVI; test: NCI one-dose screening, melanoma LOX IMVI; format: cell-based, human; details: 10 μM
[29] = test system: MALME-3M; test: NCI one-dose screening, melanoma MALME-3M; format: cell-based, human; details: 10 μM
[30] = test system: M14; test: NCI one-dose screening, melanoma M14; format: cell-based, human; details: 10 μM
[31] = test system: UACC-62; test: NCI one-dose screening, melanoma UACC-62; format: cell-based, human; details: 10 μM
[32] = test system: UACC-257; test: NCI one-dose screening, melanoma UACC-257; format: cell-based, human; details: 10 μM
[33] = test system: SK-MEL-2; test: NCI one-dose screening, melanoma SK-MEL-2; format: cell-based, human; details: 10 μM
[34] = test system: SK-MEL-28; test: NCI one-dose screening, melanoma SK-MEL-28; format: cell-based, human; details: 10 μM
[35] = test system: SK-MEL-5; test: NCI one-dose screening, melanoma SK-MEL-5; format: cell-based, human; details: 10 μM
[36] = test system: IGROV1; test: NCI one-dose screening, ovarian cancer IGROV1; format: cell-based, human; details: 10 μM
[37] = test system: OVCAR-3; test: NCI one-dose screening, ovarian cancer OVCAR-3; format: cell-based, human; details: 10 μM
[38] = test system: OVCAR-4; test: NCI one-dose screening, ovarian cancer OVCAR-4; format: cell-based, human; details: 10 μM
[39] = test system: OVCAR-5; test: NCI one-dose screening, ovarian cancer OVCAR-5; format: cell-based, human; details: 10 μM
[40] = test system: OVCAR-8; test: NCI one-dose screening, ovarian cancer OVCAR-8; format: cell-based, human; details: 10 μM
[41] = test system: 786-O; test: NCI one-dose screening, renal cancer 786-O; format: cell-based, human; details: 10 μM
[42] = test system: CAKI-1; test: NCI one-dose screening, renal cancer CAKI-1; format: cell-based, human; details: 10 μM
[43] = test system: ACHN; test: NCI one-dose screening, renal cancer ACHN; format: cell-based, human; details: 10 μM
[44] = test system: SN12C; test: NCI one-dose screening, renal cancer SN12C; format: cell-based, human; details: 10 μM
[45] = test system: TK-10; test: NCI one-dose screening, renal cancer TK-10; format: cell-based, human; details: 10 μM
[46] = test system: RXF, 393; test: NCI one-dose screening, renal cancer RXF, 393; format: cell-based, human; details: 10 μM
[47] = test system: NCl/ADR-RES; test: NCI one-dose screening, breast cancer NCl/ADR-RES; format: cell-based, human; details: 10 μM; listed under Ovarian cancer

## Cc1ccccc1Nc1cc2c(c3nsnc13)C(=O)c1ccccc1C2=O [C61, 4-(o-tolylamino)anthra[2,1-c][1,2,5] thiadiazol-6,11-dione]
[1]
  IC50: 0.21 µM
[2]
  Growth Percent CCRF-CEM: 17.83%
[3]
  Growth Percent HL-60(TB): 1.11%
[4]
  Growth Percent MOLT-4: −11.92%
[5]
  Growth Percent SR: −15.27%
[6]
  Growth Percent RPMI-8226: 16.20%
[7]
  Growth Percent K562: 16.97%
[8]
  Growth Percent EKVX: 62.56%
[9]
  Growth Percent HOP-62: 40.78%
[10]
  Growth Percent NCI-H226: 47.00%
[11]
  Growth Percent NCI-H23: 37.57%
[12]
  Growth Percent NCI-H322M: 64.54%
[13]
  Growth Percent NCI-H460: 11.85%
[14]
  Growth Percent NCI-H522: 12.41%
[15]
  Growth Percent A549/ATCC: 27.13%
[16]
  Growth Percent COLO 205: 83.39%
[17]
  Growth Percent HCC-2998: 57.61%
[18]
  Growth Percent HCT-116: 24.23%
[19]
  Growth Percent HCT-15: 28.74%
[20]
  Growth Percent KM12: 40.14%
[21]
  Growth Percent HT29: 52.64%
[22]
  Growth Percent SF-268: 39.57%
[23]
  Growth Percent SF-295: 34.71%
[24]
  Growth Percent SF-539: 47.90%
[25]
  Growth Percent SNB-19: 61.89%
[26]
  Growth Percent SNB-75: 43.18%
[27]
  Growth Percent U251: 19.18%
[28]
  Growth Percent LOX IMVI: 8.17%
[29]
  Growth Percent MALME-3M: 64.72%
[30]
  Growth Percent M14: 61.89%
[31]
  Growth Percent UACC-62: 57.68%
[32]
  Growth Percent UACC-257: 33.79%
[33]
  Growth Percent SK-MEL-2: 32.64%
[34]
  Growth Percent SK-MEL-28: 53.13%
[35]
  Growth Percent SK-MEL-5: 8.03%
[36]
  Growth Percent IGROV1: 25.29%
[37]
  Growth Percent OVCAR-3: 22.37%
[38]
  Growth Percent OVCAR-4: −5.69%
[39]
  Growth Percent OVCAR-5: 79.06%
[40]
  Growth Percent OVCAR-8: 22.87%
[41]
  Growth Percent 786-0: 63.62%
[42]
  Growth Percent CAKI-1: 27.55%
[43]
  Growth Percent ACHN: 38.07%
[44]
  Growth Percent SN12C: 46.94%
[45]
  Growth Percent TK-10: 63.75%
[46]
  Growth Percent RXF 393: 45.35%
[47]
  Growth Percent NCI/ADR-RES: 28.36%
other
  melting point: 177 to 178 °C
